US20230181496A1, “USE OF NOREPINEPHRINE OR BETA-ADRENERGIC RECEPTOR INHIBITOR IN PREPARATION OF MEDICAMENT FOR NERVE INJURY REPAIR IN DIABETES” (Qingdao Eye Hospital of Shandong First Medical University …, priority 2021, published 2023)
“Also recorded” adds a separate entry of the source.

Tests used:
[1] = tested on: Trigeminal ganglion neurons; assay: Growth of trigeminal ganglion neurons cultured with TKE2 culture supernatants (βIII-Tubulin staining, Neuron J length); format: cell-based, mice; details: supernatant added to neurons for 24 h
Method: Trigeminal ganglion neurons isolated from normal mice were mixed with a mixture of 40 U/mL papain, 3 mg/mL collagenase, and 4.7 mg/mL dispase II, digested and subjected to gradient centrifugation with percoll (upper layer: 12.5% percoll; lower layer 28% percoll), and isolated to obtain neurons (as describedin the prior art: Malin, S. A., Davis, B. M. & Molliver, D. C. Production of dissociated sensory neuron cultures and considerations for their use in studying neuronal function and plasticity. Nat Protoc 2, 152-160 (2007).). The neurons obtained were cultured on a laminin-coated glass slide overnight. TKE2 culture supernatants under different conditions were added to the neurons and cultured for 24 h; after βIII-Tubulin staining, the length of neuron was analyzed and calculated by Neuron J (after the relative length was analyzed by the software, it was calculated with the control as 1.0).

[2] = tested on: TKE2 cells; assay: Expression of neurotrophic factors NGF and GDNF in TKE2 cells (qPCR and ELISA); format: cell-based, mouse; details: 24 h
Method: TKE2 cells cultured under different conditions were collected for mRNA extraction, and their culture supernatants were collected; after qPCR and ELISA, expression levels of neurotrophic factors NGF and GDNF were obtained, respectively. Herein, primers for the detection of expression of NGF and GDNF by qPCR were as follows: The reaction system was as follows: 2×SYBR: 5 μL; upstream primer: 0.3 μL; downstream primer: 0.3 μL; RNase-free water: 2.4 μL; cDNA: 2 μL; total: 10 μL; The reaction program was as follows: PCR initial denaturation: 95° C. for 2 min; two-step program: 40 cycles of 95° C. for 5 s and 60° C. for 10 s. The ELISA was conducted by ELISA Kit for mouse NGF (USCN Life Science Inc. Wuhan, China) and mouse GDNF(Abcam, ab171178, Shanghai, China).

[3] = tested on: diabetic mice; assay: Corneal nerve regeneration (βIII-tubulin staining, confocal microscope); format: in vivo
Description: Animals were STZ-induced type I diabetic mice (constructedas describedin the prior art: Lingling, Yang, Guohu, Di, Xia, & Qi, et al. (2014). Substance P promotes diabetic corneal epithelial wound healing through molecular mechanisms mediated via the neurokinin-1 receptor. Diabetes, 63(12), 4262-4274.) and their normal controls. Laboratory mice had no corneal defect, neovascularization, or conjunctival injury.
Cornea of diabetic mice and their control mice were subjected to βIII-tubulin staining (as described in the following reference: Wang X, Li W, Zhou Q, et al. MANF Promotes Diabetic Corneal Epithelial Wound Healing and Nerve Regeneration by Attenuating Hyperglycemia-Induced Endoplasmic Reticulum Stress. 2020.), and nerve regeneration was observed under a confocal microscope.
The cornea of diabetic mice and their control mice were stained with βIII-tubulin, and nerve regeneration was observed under a confocal microscope.

[4] = tested on: diabetic mice; assay: Corneal epithelial repair after 2 mm corneal epithelium scraping (sodium fluorescein staining); format: in vivo
[5] = tested on: diabetic mice; assay: Corneal sensitivity after corneal epithelium scraping (Cochet-Bonnet aesthesiometer); format: in vivo
[6] = tested on: diabetic mice; assay: Expression of NGF and GDNF in corneal epithelium (mRNA detection and immunofluorescence staining); format: in vivo; details: diabetic mice dropped in eyes with β2-adrenergic receptor antagonist
Description: mRNA was extracted from the corneal epithelia of the diabetic mice and the diabetic mice treated with β2-adrenergic receptor antagonist; meanwhile, expression levels of NGF and GDNF in epithelial cells were detected according to the example, and expression levels of NGF and GDNF in epithelia of the diabetic mice and the diabetic mice dropped in eyes with β2-adrenergic receptor antagonist were detected by immunofluorescence staining.

Compound: NC[C@H](O)c1ccc(O)c(O)c1 [norepinephrine]
- nerve growth (length of neuron) ([1]; TKE2 cells treated with 10 μM NE for 24 h): nerve growth inhibition
- expression of NGF and GDNF ([2]; 10 μM NE): downregulated expression of NGF and GDNF

Compound: NCCc1cc(O)c(O)cc1O [6-OHDA, 6-hydroxydopamine]
- corneal nerve regeneration ([3]; Example 8: 100 mg/kg intraperitoneally, four consecutive days, 100 mg/kg): promoting effect; also recorded: effectively promoted the corneal nerve regeneration

Compound: Cc1ccc(OCC(O)C(C)NC(C)C)c2c1CCC2 (centres unmarked) [ICI 118,551]
- reversal of nerve growth inhibition caused by elevated norepinephrine ([1]; TKE2 cells treated with 10 μM NE + 50 μM antagonist for 24 h): better reverse nerve growth inhibition
- reversal of downregulated expression of NGF and GDNF caused by NE ([2]; 10 μM NE + 50 μM antagonist): reverse the downregulated expression of NGF and GDNF
- diabetic corneal epithelial repair ([4]; 10-100 μM eye drops, 5 μL/eye, 4 times/day, two consecutive days, 0, 24, 36, 48 h after modeling): significantly promote the diabetic corneal epithelial repair
- diabetic corneal epithelial repair ([4]; Example 8: 100 mg/kg intraperitoneally, four consecutive days, scraped at 7th day, 0, 36, 48 h after modeling): significantly promote the diabetic corneal epithelial repair
- corneal sensitivity ([5]; 10-100 μM eye drops, 5 μL/eye, 4 times/day, two consecutive days): significantly promote
- corneal sensitivity ([5]; Example 8: 100 mg/kg intraperitoneally, four consecutive days, scraped at 7th day): recover the sensitivity
- corneal nerve regeneration ([3]; diabetic mice treated with β2-adrenergic receptor antagonist eye drops): promoting effect; also recorded: effectively promote corneal nerve regeneration
- expression of NGF and GDNF in corneal epithelium [6]: significantly upregulated the expression of NGF and GDNF
